Here are results for 1 molecule from article PMC5321639, “Design and pharmacodynamics of recombinant NZ2114 histidine mutants with improved activity against methicillin-resistant Staphylococcus aureus” (AMB Express, 2017).

For this experiment, the system named is S. aureus ATCC43300. Kind of experiment: microbe, parasite or virus in culture. It is filed as cell-based, Staphylococcus aureus. The following applies: for MICc (MIC of the most effective combination): checkerboard; for FIC: MICc/MICa. The method, then:
The MIC values of four antibiotics (vancomycin, ampicillin, rifampicin and ciprofloxacin) to S. aureus ATCC43300 were tested as the MIC assay described above. The peptide solutions and antibiotics were diluted twofold with the final concentrations ranging from 1/16 to 8× MIC, and added into 96-well plates in a checkerboard fashion (White et al. [1996]). The results of combination were evaluated by calculating the fractional inhibitory concentration index (FICI) of each combination. FIC of H1, H2, H3=MIC of H1, H2, H3, respectively, in combination with antibiotic/MIC of H1, H2, H3 alone; FIC of antibiotics=MIC of antibiotic in combination with peptide/MIC of antibiotic alone; FICI = FIC of H1, H2, H3+ antibiotic, respectively. The result of interaction between two antimicrobial drugs was determined according to: FICI ≤ 0.5 refers to synergy, 0.5 < FICI ≤ 1 refers to additivity, 1 < FICI ≤ 4 refers to indifference, and FICI > 4 is defined as antagonism (Tsuji and Rybak [2006]).

Turning to `CO[C@H]1/C=C/O[C@@]2(C)Oc3c(C)c(O)c4c(O)c(c(/C=N/N5CCN(C)CC5)c(O)c4c3C2=O)NC(=O)/C(C)=C\C=C\[C@H](C)[C@H](O)[C@@H](C)[C@@H](O)[C@@H](C)[C@H](OC(C)=O)[C@@H]1C` [rifampicin], the MIC (Staphylococcus aureus, ATCC43300, read-out: MICa (MIC of drug alone)) stood at 0.019 µM. The “MICc (MIC of the most effective combination)” value by setting is: (in combination with H1) 0.019 µM; (in combination with H2) 0.019 µM; (in combination with H3) 0.038 µM. In addition, the FIC runs as follows: (in combination with H1) 1; (in combination with H2) 1; (in combination with H3) 2.
